Laboratory results: US8952024B2, “Herbicidal pyrimidone derivatives” (E I du Pont de Nemours and Company, priority 2009, dated 2015)

Tests used:
Experiment in all cases: Test B pre-/postemergence plant response
Format in all cases: in vivo
[1] = test system: Italian ryegrass (Lolium multiflorum)
How it was run: (§1)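 Ratings reflect visual comparison with untreated controls 13 to 15 days after application, from 0 (no effect) to 100 (complete control). Application was preemergence to seeded loam/sand soil or postemergence to 1- to 4-leaf plants, with compound in a non-phytotoxic, surfactant-containing solvent.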

[2] = test system: Surinam grass (Brachiaria decumbens)
How it was run: as §1

[3] = test system: bermudagrass (Cynodon dactylon)
How it was run: as §1

[4] = test system: blackgrass (Alopecurus myosuroides)
How it was run: as §1

[5] = test system: corn (Zea mays)
How it was run: as §1

[6] = test system: downy bromegrass (Bromus tectorum)
How it was run: as §1

[7] = test system: giant foxtail (Setaria faberii)
How it was run: as §1

[8] = test system: green foxtail (Setaria viridis)
How it was run: as §1

[9] = test system: lambsquarters (Chenopodium album)
How it was run: as §1

[10] = test system: large crabgrass (Digitaria sanguinalis)
How it was run: as §1

[11] = test system: morningglory (Ipomoea coccinea)
How it was run: as §1

[12] = test system: woolly cupgrass (Eriochloa villosa)
How it was run: as §1

[13] = test system: yellow nutsedge (Cyperus esculentus)
How it was run: as §1

[14] = 31 g ai/ha, postemergence, scale 0 to 100, 0 is no effect, 100 is complete control
[15] = Postemergence, 62 g ai/ha, scale 0 (no effect) to 100 (complete control), 13 to 15 days
[16] = Postemergence, 125 g ai/ha, visual rating after 13 to 15 days, scale 0 (no effect) to 100 (complete control)
[17] = Postemergence, 250 g ai/ha, scale 0 to 100 (0 no effect, 100 complete control)
[18] = Preemergence, 31 g ai/ha, scale 0 to 100 (0 no effect, 100 complete control)
[19] = Preemergence, 62 g ai/ha, scale 0 to 100 (0 no effect, 100 complete control)
[20] = Preemergence, 125 g ai/ha, scale 0 to 100, 0 no effect, 100 complete control
[21] = 250 g ai/ha, Preemergence, 0 to 100 scale

Cc1cc(-n2c(-c3ccccc3)ncc(C(=O)C3=C(O)CCCC3=O)c2=O)ccc1F [Compound 53]
Plant response rating, Ryegrass, Italian [1, 14]: 0
Plant response rating, Ryegrass, Italian [1, 15]: 5
Plant response rating, Ryegrass, Italian [1, 16]: 40
Plant response rating, Ryegrass, Italian [1, 17]: 45
Plant response rating, Ryegrass, Italian [1, 18]: 0
Plant response rating, Ryegrass, Italian [1, 19]: 0
Plant response rating, Ryegrass, Italian [1, 20]: 0
Plant response rating, Surinam Grass [2, 14]: 85
Plant response rating, Surinam Grass [2, 15]: 95
Plant response rating, Surinam Grass [2, 16]: 98
Plant response rating, Surinam Grass [2, 17]: 98
Plant response rating, Surinam Grass [2, 18]: 75
Plant response rating, Surinam Grass [2, 19]: 85
Plant response rating, Surinam Grass [2, 20]: 100
Plant response rating, Bermudagrass [3, 14]: 90
Plant response rating, Bermudagrass [3, 21]: 100
Plant response rating, Bermudagrass [3, 15]: 95
Plant response rating, Bermudagrass [3, 16]: 98
Plant response rating, Bermudagrass [3, 17]: 98
Plant response rating, Bermudagrass [3, 19]: 100
Plant response rating, Bermudagrass [3, 20]: 100
Plant response rating, Blackgrass [4, 14]: 20
Plant response rating, Blackgrass [4, 21]: 60
Plant response rating, Blackgrass [4, 15]: 30
Plant response rating, Blackgrass [4, 16]: 40
Plant response rating, Blackgrass [4, 17]: 50
Plant response rating, Blackgrass [4, 18]: 0
Plant response rating, Blackgrass [4, 19]: 5
Plant response rating, Blackgrass [4, 20]: 5
Plant response rating, Corn [5, 14]: 55
Plant response rating, Corn [5, 21]: 20
Plant response rating, Corn [5, 15]: 80
Plant response rating, Corn [5, 16]: 80
Plant response rating, Corn [5, 17]: 85
Plant response rating, Corn [5, 18]: 0
Plant response rating, Corn [5, 19]: 0
Plant response rating, Corn [5, 20]: 0
Plant response rating, Bromegrass, Downy [6, 14]: 35
Plant response rating, Bromegrass, Downy [6, 21]: 30
Plant response rating, Bromegrass, Downy [6, 15]: 50
Plant response rating, Bromegrass, Downy [6, 16]: 55
Plant response rating, Bromegrass, Downy [6, 17]: 60
Plant response rating, Bromegrass, Downy [6, 18]: 0
Plant response rating, Bromegrass, Downy [6, 19]: 0
Plant response rating, Bromegrass, Downy [6, 20]: 5
Plant response rating, Foxtail, Giant [7, 14]: 80
Plant response rating, Foxtail, Giant [7, 21]: 100
Plant response rating, Foxtail, Giant [7, 15]: 85
Plant response rating, Foxtail, Giant [7, 16]: 90
Plant response rating, Foxtail, Giant [7, 17]: 95
Plant response rating, Foxtail, Giant [7, 18]: 5
Plant response rating, Foxtail, Giant [7, 19]: 85
Plant response rating, Foxtail, Giant [7, 20]: 100
Plant response rating, Foxtail, Green [8, 14]: 95
Plant response rating, Foxtail, Green [8, 21]: 98
Plant response rating, Foxtail, Green [8, 15]: 100
Plant response rating, Foxtail, Green [8, 16]: 100
Plant response rating, Foxtail, Green [8, 17]: 100
Plant response rating, Foxtail, Green [8, 18]: 60
Plant response rating, Foxtail, Green [8, 19]: 60
Plant response rating, Foxtail, Green [8, 20]: 98
Plant response rating, Lambsquarters [9, 14]: 90
Plant response rating, Lambsquarters [9, 21]: 100
Plant response rating, Lambsquarters [9, 15]: 95
Plant response rating, Lambsquarters [9, 16]: 98
Plant response rating, Lambsquarters [9, 17]: 98
Plant response rating, Lambsquarters [9, 18]: 98
Plant response rating, Lambsquarters [9, 19]: 100
Plant response rating, Lambsquarters [9, 20]: 100
Plant response rating, Crabgrass, Large [10, 14]: 85
Plant response rating, Crabgrass, Large [10, 21]: 100
Plant response rating, Crabgrass, Large [10, 15]: 95
Plant response rating, Crabgrass, Large [10, 16]: 95
Plant response rating, Crabgrass, Large [10, 17]: 100
Plant response rating, Crabgrass, Large [10, 18]: 75
Plant response rating, Crabgrass, Large [10, 19]: 100
Plant response rating, Crabgrass, Large [10, 20]: 100
Plant response rating, Morningglory [11, 14]: 55
Plant response rating, Morningglory [11, 15]: 75
Plant response rating, Morningglory [11, 16]: 80
Plant response rating, Morningglory [11, 17]: 98
Plant response rating, Morningglory [11, 18]: 0
Plant response rating, Morningglory [11, 19]: 20
Plant response rating, Morningglory [11, 20]: 25
Plant response rating, Cupgrass, Woolly [12, 14]: 65
Plant response rating, Cupgrass, Woolly [12, 21]: 95
Plant response rating, Cupgrass, Woolly [12, 15]: 90
Plant response rating, Cupgrass, Woolly [12, 16]: 95
Plant response rating, Cupgrass, Woolly [12, 17]: 98
Plant response rating, Cupgrass, Woolly [12, 18]: 0
Plant response rating, Cupgrass, Woolly [12, 19]: 55
Plant response rating, Cupgrass, Woolly [12, 20]: 85
Plant response rating, Nutsedge, Yellow [13, 14]: 20
Plant response rating, Nutsedge, Yellow [13, 15]: 65
Plant response rating, Nutsedge, Yellow [13, 16]: 75
Plant response rating, Nutsedge, Yellow [13, 17]: 75
Plant response rating, Nutsedge, Yellow [13, 18]: 65
Plant response rating, Nutsedge, Yellow [13, 19]: 80
Plant response rating, Nutsedge, Yellow [13, 20]: 90
